How the values were obtained:
[1] = tested on: PD-L1 expression in LLC, H1650, and A549 cell lines; assay: PD-L1 expression in NSCLC cell lines (flow cytometry, qRT-PCR, western blot); type: cell-based, mouse (LLC), human (H1650
Protocol: FIGS. 3A-3F depict that WFA upregulates PD-L1 surface expression in NSCLC cell lines. Cells were treated with WFA for 48 h. (FIGS. 3A, 3C, 3E) PD-L1 surface expression determined using flow cytometry LLC (FIG. 3A), H1650 (FIG. 3C), and A549 (FIG. 3E). (FIGS. 3B, 3D, 3F) PD-L1 expression was measured using qRT-PCR LLC (FIG. 3B), H1650 (FIG. 3D), A549 (FIG. 3F). PCR experiments were repeated twice and the mean±SEM of the technical replicates are represented. For the rest, the means of two independent experiments ±SEM are shown, and statistical significance was calculated using one-way ANOVA and a Fisher LSD post hoc test where * is p<0.05, ** is p<0.01, and **** is p <0.0001.
FIGS. 8A-8G depict that WFA induced ICD and PD-L1 upregulation in colorectal cancer cell lines. WFA increased the levels of ecto-CRT in the murine colorectal cancer cell line (FIG. 8A) MC-38 and human cell line (FIG. 8B) HCT-116. WFA increased the expression of PD-L1 in both (FIG. 8C) MC-38 and (FIG. 8D) HCT-116 cells. […] H1650 cells (at a higher density) were treated with a higher concentration of WFA (2 and 4 μM) to facilitate cell collection and protein isolation. The band density was quantified using Image J software and normalized to the housekeeping protein. The fold change from untreated control was averaged from two independent experiments ±SEM and one-way ANOVA was used to calculate the statistical significance. A Fisher LSD post hoc test was performed to compare the treatments to the control in (FIG. 8E) LLC, (FIG. 8F) H1650, (FIG. 8G) A549 cells. * p<0.05, ** p<0.01, *** p<0.001, **** p<0.0001. […]
Total cellular RNA was isolated from collected cell pellets using TRIzol reagent (Invitrogen, Waltham, MA, USA) and then quantified using the 2000 Nanodrop spectrophotometer (Thermo Fisher Scientific, Waltham, MA, USA). cDNA synthesis was performed using the Verso cDNA synthesis kit (Thermo Fisher Scientific, Waltham, MA, USA). qPCR was then performed using Forget-Me-Not EvaGreen qPCR Master Mix (Biotium, Fremont, CA, USA) in a Bio-Rad CFX384 thermocycler according to the manufacturer's instructions. […]

[2] = tested on: ROS levels in NSCLC cell lines; assay: ROS levels with ROS indicator CM-H2DCFDA; type: cell-based, mouse (LLC), human (H1650; settings: 24 h; WFA 0.6 μM (LLC, H1650), 4 μM (A549); NAC 5 mM
[3] = tested on: PD-L1 upregulation in MC-38, HCT-116, 4T-1, and MDA-MB-231 cell lines; assay: PD-L1 with WFA and NAC in colorectal and breast cancer cell lines; type: cell-based, mouse (MC-38, 4T1), human (HCT-116; settings: breast cancer cell lines (4T1 1 μM, MDA-MB-231 2 μM WFA)

Compound: CC1=C(CO)C(=O)O[C@@H]([C@@H](C)[C@H]2CC[C@H]3[C@@H]4C[C@H]5O[C@]56[C@@H](O)C=CC(=O)[C@]6(C)[C@H]4CC[C@]23C)C1 [WFA, Withaferin A]
- PD-L1 surface expression ([1]; flow cytometry, 48 h, LLC, H1650, A549): consistently increased
- PD-L1 expression (mRNA) ([1]; qRT-PCR): induced
- PD-L1 expression (protein) ([1]; western blotting): induced
- ROS levels [2]: increased
- PD-L1 expression [3]: increases
